# Measurements published in patent US11434241B2, “Pyrimidine derivatives for prevention and treatment of bacterial infections” (UNIVERSITE DE LIEGE, priority 2018, dated 2022).
# Where two headings read alike, the source gives them in different places.
# Key:
# [1] = tested on: Staphylococcus aureus (Xen29-ATCC 12600) biofilm formation; experiment: S. aureus Xen29 biofilm formation (bioluminescence imaging, IVIS); format: cell-based; settings: imaged every 60 min for 13 hours; for biofilm formation (photon signal per surface unit): 10 μM, vs vehicle DMSO 1%; for biofilm formation (photon signal per second, radiance): 20 μM, vs vehicle
# Protocol: (§1) Bioluminescent S. aureus (Xen29, Perkin Elmer-(ATCC 12600)) is grown overnight in TSB medium, before being diluted 100 fold in fresh TSB, and incubated aerobically at 37° C. until bacteria culture reached an OD600 of 0.6 (corresponding to approximately 1-3×10^8 CFU/ml). Bacteria cultures are then diluted to 1×10^4 CFU/ml in fresh TSB. 600 μl aliquots of diluted bacteria suspensions are distributed in each well of a 48-well plate. Bacteria are allowed to adhere for 3 hours under static conditions at 37° C. After removing media, wells are rinsed 2 times with PBS to eliminate planktonic bacteria and re-filled with TSB supplemented with 0.5% glucose
# (§2) […] Biofilm formation is imaged every 60 min, for 13 hours, using a IVIS camera system (Xenogen Corp.) Total photon emission from each well is then quantified using the Living Image software package (Xenogen Corp.).
# as §1, with “suspensions were” for “suspensions are”
# as §2
# as §1, with “was” for “(Xen29, Perkin Elmer-(ATCC 12600)) is”, “O/N” for “overnight”, “were” for “are”, “TSB and aliquots of” for “TSB.”, “were” for “aliquots of diluted bacteria suspensions are”, “glucose. Molecules 2666 and 2511 were then added at 20 μM final concentration. Biofilm formation is imaged every 60 min, for 13 hours, using a IVIS camera system (Xenogen Corp.) Total photon emission from each well (photon/second:p/s) is then quantified using the Living Image software package (Xenogen Corp.).” for “glucose”
# [2] = tested on: Staphylococcus epidermidis (ATCC 35984, also known as RP62A or MRSE); experiment: MIC determination on S. epidermidis (EUCAST, OD600 after overnight growth in MHB); format: cell-based
# Protocol: The Minimal Inhibitory Concentration (MIC) of molecules 2329, 2348, 2412, 2452 and 2461 was determined on Staphylococcus epidermidis (ATCC 35984, also known as RP62A) according to EUCAST (European Committee on Antimicrobial Susceptibility Testing) recommendations.
# Briefly, a single colony grown on a Tryptic Soy Agar (TSA) plate was resuspended and cultured in Tryptic Soy Broth (TSB) overnight (O/N) in aerobic conditions (37° C. with 220 rpm shaking), next day a 1:50 inoculum in Mueller-Hinton broth (MHB) was incubated in aerobic conditions for 3 hr and an inoculum of 1:100 dilution, corresponding to 3×10^5 CFU/ml, was incubated in presence or absence of different concentrations of the molecules in 1% DMSO (vehicle). After O/N growth the OD of each culture was measured at 600 nm in a spectrophotometer (OD600). The MIC represents the concentration at which there is no visible growth of bacteria, i.e. ΔOD at 600 nm equal to zero (blank is the medium alone).
# The Minimal Inhibitory Concentration (MIC) of pyrazolopyrimidine molecules 2539, 2544, 2666,2676, 2693, 2783, 2784 and 2782 and of purine molecules 2498, 2511, 2525, 2527, 2833, and 2840 was determined on S. epidermidis (ATCC 35984, also known as RP62A or MRSE) according to EUCAST (European Committee on Antimicrobial Susceptibility Testing) recommendations.
# Briefly, a single colony grown on an agar plate was resuspended and cultured in Triptic Soy Broth (TSB) medium overnight (O/N) in aerobic conditions (37° C. with 220 rpm shaking), next day a 1:50 inoculum in Mueller-Hinton broth (MHB) was incubated in aerobic conditions for 3 hr (OD=0.08-0.1) and an inoculum of 1:300 dilution, corresponding to 3×10^5 CFU/ml, was incubated in presence or absence of different concentrations of each of the molecules in 1% DMSO (vehicle). After O/N growth the OD of each culture was measured at 600 nm (600) in a spectrophotometer (Victor 3-Perkin Elmer). The MIC represents the concentration at which there is no visible growth of bacteria, i.e. ΔOD at 600 nm equal to zero (where ΔOD is the difference between the OD with the molecule and the OD of the blank, the medium alone).
# Molecule 36z has been tested for its potential antibacterial activity by determining its minimal inhibitory concentration (MIC) according to protocols recommended by EUCAST to assess the efficacy of antibiotics against bacterial strains. In brief MIC in MRSA (ATCC BAA-1556) or in Xen29 (Perkin Elmer-ATCC 12600) for 36z (molecule 25 in WO2009/034386) was determined by culturing a single colony of MRSA or Xen29 in brain heart infusion (BHI) broth overnight (O/N) in aerobic conditions (37° C. with 220 rpm shaking), while MIC for MRSE (ATCC 35984) was determined by culturing MRSE in TSB O/N. Next day a 1:100 inoculum in Mueller-Hinton broth (MHB) is incubated in aerobic conditions for 3 hr (OD=0.08-0.1) and an inoculum of 1:300 dilution, corresponding to 3×10^5 CFU/ml, is incubated in presence or absence of different concentrations of the tested molecules in 1% DMSO. After O/N growth the OD of each culture was measured at 600 nm (OD600) in a spectrophotometer (Victor 3-Perkin Elmer). The MIC represents the concentration at which there is no visible growth of bacteria, i.e. ΔOD at 600 nm equal to zero (blank is the medium alone). No antibacterial activity was found against MRSA (ATCC BAA-1556), Xen29 (Perkin Elmer-ATCC 12600 or MRSE (ATCC 35984) strains when the molecule was used at concentrations up to 200 μM.
# [3] = Staphylococcus epidermidis, Mueller-Hinton broth (MHB), read-out: MIC S. epidermidis RP62
Structure (SMILES),biofilm formation (photon signal per surface unit) [1],"MIC [2, 3] [µM]","biofilm formation (photon signal per second, radiance) [1]",antibacterial activity / inhibition of MRSE growth (in words) ([2]; MHB medium),"MIC ([2]; MHB medium, tested up to 100 μM, read-out: MIC MRSE) [µM]","MIC ([2]; Staphylococcus epidermidis, MHB medium, tested up to 100 μM, read-out: MIC MRSE) [µM]","MIC ([2]; Staphylococcus epidermidis, read-out: MIC MRSE) [µM]"
"CCCSc1nc(N[C@@H]2C[C@H]2c2ccc(F)c(F)c2)c2ncn(C)c2n1 [Molecule 2329, N-((1R,2S)-2-(3,4-difluorophenyl)cyclopropyl)-9-methyl-2-(propylthio)-9H-purin-6-amine]",fully prevented biofilm formation,20,,,,,
"CCCSc1nc(N[C@@H]2C[C@H]2c2ccc(F)c(F)c2)c2ncn(CC)c2n1 [Molecule 2348, N-((1R,2S)-2-(3,4-difluorophenyl)cyclopropyl)-9-ethyl-2-(propylthio)-9H-purin-6-amine]",fully prevented biofilm formation,20,,,,,
"C=CCn1cnc2c(N[C@@H]3C[C@H]3c3ccc(F)c(F)c3)nc(SCCC)nc21 [Molecule 2412, 9-allyl-N-((1R,2S)-2-(3,4-difluorophenyl)cyclopropyl)-2-(propylthio)-9H-purin-6-amine]",delay biofilm formation,> 50,,,,,
"C#CCn1cnc2c(N[C@@H]3C[C@H]3c3ccc(F)c(F)c3)nc(SCCC)nc21 [Molecule 2452, N-((1R,2S)-2-(3,4-difluorophenyl)cyclopropyl)-9-(prop-2-yn-1-yl)-2-(propylthio)-9H-purin-6-amine]",delay biofilm formation,> 50,,,,,
"CCn1cnc2c(N[C@@H]3C[C@H]3c3ccc(F)c(F)c3)nc(SC)nc21 [Molecule 2511, N-((1R,2S)-2-(3,4-difluorophenyl)cyclopropyl)-9-ethyl-2-(methylthio)-9H-purin-6-amine]",,,inhibited biofilm growth,able to inhibit MRSE growth,>100,> 100,
"CCSc1nc(N[C@@H]2C[C@H]2c2ccc(F)c(F)c2)c2cnn(C)c2n1.Cl [Molecule 2666, N-((1R,2S)-2-(3,4-difluorophenyl)cyclopropyl)-6-(ethylthio)-1-methyl-1H-pyrazolo[3,4-d]pyrimidin-4-amine hydrochloride]",,,inhibited biofilm growth,able to inhibit MRSE growth,,,50
